According to patent publication US12122780B2, “Pyrimidinyl group-containing tricyclic compound serving as c-Met inhibitor” (JIANGSU AOSAIKANG PHARMACEUTICAL CO., LTD., priority 2019, dated 2024):
Where a name gives a salt, the structure may show the parent alone.

Columns and labels:
[1] = biological target: c-Met enzyme (Homo sapiens (Human), UniProt P08581); assay: c-Met enzyme activity inhibition (Promega c-Met Kinase Enzyme System, ADP-Glo); assay type: biochemical; conditions: 10 μM ATP, 60 min, 30° C.
Experimental: To detect the inhibitory effect of the compounds on c-Met enzyme activity.
The c-Met Kinase Enzyme System was purchased from Promega. Envision multi-label analyzer (PerkinElmer).
The kinase buffer in the kit was used to dilute the enzyme, substrate, ATP and inhibitor.
The compound to be tested was diluted 5-fold to the eighth concentration with a discharge gun, i.e., from 50 μM to […], with a final DMSO concentration of 5%, and double duplicate wells experiment was set. 1 μL of each concentration gradient of the inhibitor, 2 μL of c-Met enzyme (4 ng), 2 μL of a mixture of the substrate and ATP (10 μM ATP, 0.2 μg/μL poly E4Y1) were added to the microplate, and the final concentration gradient of the compound of 10 μM was diluted to 0.13 nM. The reaction system was placed at 30° C. and the reaction was carried out for 60 minutes. When the reaction was completed, 5 μL of ADP-Glo reagent was added to each well and the reaction was carried out at 30° C. for another 40 minutes, when the reaction was completed, 10 μL of kinase detection reagent was added to each well, then the reaction was carried out at 30° C. for still another 30 minutes, chemiluminescence was read by the PerkinElmer Envision multi-label analyzer with an integration time of 0.5 seconds.
Using the equation (Sample-Min)/(Max-Min)*100% to convert the original data to the inhibition rate, the IC50 value can be obtained by curve fitting with four parameters (obtained by log(inhibitor) vs. response in GraphPad Prism—Variable slope mode).

[2] = system: human lung cancer EBC-1 xenograft tumor; assay: In vivo drug efficacy, human lung cancer EBC-1 xenograft tumor in nude mice; design: species or system BALB/c nude mice; conditions: for Tumor volume: n = 6; for TGI (tumor growth inhibition rate) / TRTV/CRTV (relative tumor proliferation rate T/C): 25th day
Experimental: BALB/c nude mice, female, 6-8 weeks old, weighing about 18-20 grams, animals were raised in SPF-class animal rooms in IVC (independent air supply system, constant temperature and humidity) cages (3 per cage). All cages, bedding and water were disinfected before use. All animals had free access to standard certified commercial laboratory diets. A total of 36 mice purchased from Shanghai Lingchang Biotechnology Co., Ltd. were used for research. Each animal was inoculated with 0.1 mL (5×10^6 cells) of EBC-1 cells on the right back, when the average tumor volume reached 243 mm^3, the animals were randomly grouped and the administration was started. The test compound was orally administered daily, the dose of hydrochloride of compound 24 was 10 mg/kg, the two doses of hydrochloride of compound 25 were 10 mg/kg and 20 mg/kg, respectively, and the dose of hydrochloride of compound 29 was 10 mg/kg. The tumor diameter was measured with vernier calipers twice a week. The calculation formula of tumor volume was: V=0.5a×b^2, a and b represented the long diameter and short diameter of the tumor, respectively. The anti-tumor efficacy of the compound was evaluated by TGI (%) or the relative tumor proliferation rate T/C (%). Relative tumor proliferation rate T/C (%)=TRTV/CRTV×100% (TRTV: average RTV in the treatment group; CRTV: average RTV in the negative control group). The relative tumor volume (RTV) was calculated according to the results of tumor measurement, the calculation formula was RTV=Vt/V0, wherein V0 was the tumor volume measured at the time of the grouping administration (i.e. D0), Vt was the tumor volume at a certain measurement, and TRTV and CRTV were taken on the same day. TGI (%) reflected the tumor growth inhibition rate. TGI (%)=[(1−(average tumor volume of a certain treatment group after administration-average tumor volume of the treatment group at the beginning of administration))/(average tumor volume of the solvent control group after the administration-average tumor volume of the solvent control group at the beginning of the administration)]×100%. Statistical analysis was performed based on RTV data at the end of the experiment, and SPSS software was used for analysis.

[3] = Pharmacokinetics of single intravenous and oral administration in mice; assay type: in vivo; conditions: for Exposure AUC / Vd / clearance / half-life: intravenous injection, 1 mg/kg; for Vd / clearance / half-life / bioavailability: mouse, plasma; for Vd: read-out: Apparent volume of distribution; for clearance: read-out: Clearance rate; for half-life: read-out: Half-life (T1/2) (converted); for bioavailability / Exposure AUC0-last / Maximum blood concentration / Peak time: oral administration, 10 mg/kg
Experimental: The objective of this experiment was to study the pharmacokinetics (PK) of the test compound in different species after a single intravenous and a single oral administration.
After intravenous injection or oral administration, animal blood samples were collected and the actual blood collection time was recorded. Immediately after collection, blood samples were transferred to labeled centrifuge tubes containing K2-EDTA and subsequently centrifuged and processed to obtain plasma. Plasma was transferred to pre-cooled centrifuge tubes, snap-frozen in dry ice and stored in an ultra-low temperature refrigerator at −70±10° C. until LC-MS was performed.
Plasma drug concentration data of the compounds were processed using pharmacokinetic software with a non-compartmental model. The peak concentration (Cmax) and time to peak (Tmax), as well as the quantifiable end time, were obtained directly from the blood concentration-time diagram. The log-linear trapezoidal method was used to calculate the following pharmacokinetic parameters: half-life (T1/2), apparent volume of distribution (Vdss) and clearance rate (Cl), and the area under the time-plasma concentration curve from 0 points to the end time (AUC0-last), the initial concentration (C0).

c-Met enzyme, sequence (P08581 956-1390): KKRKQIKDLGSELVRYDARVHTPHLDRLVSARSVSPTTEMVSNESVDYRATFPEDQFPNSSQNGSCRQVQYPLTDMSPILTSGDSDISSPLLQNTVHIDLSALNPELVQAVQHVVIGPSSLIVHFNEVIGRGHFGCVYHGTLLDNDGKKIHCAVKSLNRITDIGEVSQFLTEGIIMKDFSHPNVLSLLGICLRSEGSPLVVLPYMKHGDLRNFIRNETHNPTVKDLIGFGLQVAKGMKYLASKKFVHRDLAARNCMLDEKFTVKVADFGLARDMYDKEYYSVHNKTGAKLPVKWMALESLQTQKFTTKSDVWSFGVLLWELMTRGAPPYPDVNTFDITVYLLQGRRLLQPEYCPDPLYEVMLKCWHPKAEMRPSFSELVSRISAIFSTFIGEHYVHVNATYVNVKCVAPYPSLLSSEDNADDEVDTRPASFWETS

SMILES: CC(C)N1CCC(COc2cnc(-c3cccc(Cn4c(=O)ccn5c6cc(C#N)ccc6nc45)c3)nc2)CC1 [Hydrochloride of compound 25]
- IC50 [1]: 2.75 nM
- Tumor volume ([2]; 10 mg/kg oral daily (stopped after 15 days), day 18, mean ± standard error): 34 ± 4 mm^3
- Tumor volume ([2]; 10 mg/kg oral daily (stopped after 15 days), day 21, mean ± standard error): 44 ± 6 mm^3
- Tumor volume ([2]; 10 mg/kg oral daily (stopped after 15 days), day 25, mean ± standard error): 83 ± 11 mm^3
- Tumor volume ([2]; 10 mg/kg oral daily (stopped after 15 days), day 25, mean ± standard error, listed as hydrochloride of compound 25): 83 mm^3
- Tumor volume ([2]; 10 mg/kg oral daily (stopped after 15 days), day 27, mean ± standard error): 120 ± 25 mm^3
- TGI (tumor growth inhibition rate) ([2]; 10 mg/kg oral daily): 108.9%
- TRTV/CRTV (relative tumor proliferation rate T/C) ([2]; 10 mg/kg oral daily): 4.3%
- Tumor volume ([2]; 10 mg/kg oral daily, day 0, mean ± standard error): 243 ± 21 mm^3
- Tumor volume ([2]; 10 mg/kg oral daily, day 4, mean ± standard error): 247 ± 20 mm^3
- Tumor volume ([2]; 10 mg/kg oral daily, day 7, mean ± standard error): 162 ± 13 mm^3
- Tumor volume ([2]; 10 mg/kg oral daily, day 11, mean ± standard error): 67 ± 9 mm^3
- Tumor volume ([2]; 10 mg/kg oral daily, day 14, mean ± standard error): 46 ± 5 mm^3
- Tumor volume ([2]; 20 mg/kg oral daily (stopped after 15 days), day 18, mean ± standard error): 4 ± 0 mm^3
- Tumor volume ([2]; 20 mg/kg oral daily (stopped after 15 days), day 21, mean ± standard error): 4 ± 0 mm^3
- Tumor volume ([2]; 20 mg/kg oral daily (stopped after 15 days), day 25, mean ± standard error): 4 ± 0 mm^3
- Tumor volume ([2]; 20 mg/kg oral daily (stopped after 15 days), day 25, mean ± standard error, listed as hydrochloride of compound 25): 4 mm^3
- Tumor volume ([2]; 20 mg/kg oral daily (stopped after 15 days), day 27, mean ± standard error): 2 ± 1 mm^3
- TGI (tumor growth inhibition rate) ([2]; 20 mg/kg oral daily): 113.4%
- TRTV/CRTV (relative tumor proliferation rate T/C) ([2]; 20 mg/kg oral daily): 0.2%
- Tumor volume ([2]; 20 mg/kg oral daily, day 0, mean ± standard error): 244 ± 22 mm^3
- Tumor volume ([2]; 20 mg/kg oral daily, day 4, mean ± standard error): 174 ± 12 mm^3
- Tumor volume ([2]; 20 mg/kg oral daily, day 7, mean ± standard error): 100 ± 8 mm^3
- Tumor volume ([2]; 20 mg/kg oral daily, day 11, mean ± standard error): 32 ± 3 mm^3
- Tumor volume ([2]; 20 mg/kg oral daily, day 14, mean ± standard error): 12 ± 3 mm^3
- Exposure AUC [3]: 2.08 µM·h
- Vd [3]: 5.41 L/kg
- clearance [3]: 14.7 mL/min/kg
- half-life [3]: 4.51 h
- bioavailability [3]: 27%
- Exposure AUC0-last [3]: 5.56 µM·h
- Maximum blood concentration [3]: 541 nmol
- Peak time [3]: 2.33 h

SMILES: CC(C)(O)CN1CCC(COc2cnc(-c3cccc(Cn4c(=O)ccn5c6cc(C#N)ccc6nc45)c3)nc2)CC1 [Hydrochloride of compound 39]
- IC50 [1]: 5.51 nM
- Exposure AUC [3]: 1.8 µM·h
- Vd [3]: 7.27 L/kg
- clearance [3]: 15.8 mL/min/kg
- half-life [3]: 6.73 h
- bioavailability [3]: 82.3%
- Exposure AUC0-last [3]: 14.9 µM·h
- Maximum blood concentration [3]: 1070 nmol
- Peak time [3]: 4 h
